PubChem BioAssay AID1963986 (Molecular Pharmacology Branch, DTP, NCI, 2024)
Values belong to the molecule of their own block, whether it stands above or below them.

Test system: 171881-019-R-J1-PDC tumor spheroid viability
Experiment: Anticancer human tumor 171881-019-R-J1-PDC patient-derived invasive breast carcinoma cell line growth inhibition [PI3K]
Conditions: spheroids with HUVEC and MSC; for IC50: curve of first compound; for viability, T/C: stronger effect = lower value
Text: Combinatorial screen of targeted agents with the PI3K inhibitors inavolisib, alpelisib, duvelisib, and copanlisib in multi-cell type tumor spheroids
A high-throughput screen of multi-cell type tumor spheroids was designed to identify active combinations of targeted small molecules and PI3K pathway inhibitors. Complex spheroids include a stromal component modeled by human endothelial cells (HUVEC) and fibroblasts modeled by human mesenchymal stem cells (MSCs). The concentration ranges selected for each drug and investigational agent were based upon clinically achievable concentrations if the clinical Cmax of the agent was known.
Compounds. The drugs and investigational agents: inavolisib (NSC800729), alpelisib (NSC765974), duvelisib (NSC772469), copanlisib (NSC816437), ipatasertib (NSC767898), afuresertib (NSC778305), talazoparib (NSC767125), sapanisertib (NSC764658), selumetinib (NSC741078), tovorafenib (DAY101, NSC766906), vemurafenib (NSC761431), ravoxertinib (NSC781343), sotorasib (NSC818433), MRTX1133 (NSC 836407), abemaciclib (NSC 768073), palbociclib (NSC758247), venetoclax (NSC 766270), SY5609 (NSC837396), enzalutamide (NSC755605), and darolutamide (NSC825331), were obtained from the National Cancer Institute (NCI) Developmental Therapeutics Program Chemical Repository. The FDA-approved anticancer drug set is available from the NCI Developmental Therapeutics Program. […] The stock solutions were prepared in dimethyl sulfoxide (DMSO, Sigma-Aldrich, St. Louis, MO, cat. D2650) at 800-fold the tested concentration and stored at -70 degrees C prior to their use. All drugs and investigational agents were tested over a range starting from a high concentration at or near the clinical Cmax and decreasing in half-log increments. If the clinical Cmax for an agent had not been determined, the highest concentration tested was 10 microM.
Cell Culture. All cells were maintained in an incubator at 37 degrees C and 5% CO2 with 95% humidity. The PDC lines were cultured according to standard operating procedures established by the NCI PDMR (https://pdmr.cancer.gov/sops/default.htm). All PDCs were thawed and cultured in Matrigel-coated flasks prepared with a working solution of 1X Ham's F-12 nutrient mix, without supplementation (Invitrogen, Waltham, MA, cat. 11765054), 100 U/mL penicillin-streptomycin (Invitrogen, cat. 15140122), and 2.5% Matrigel (Corning Inc., Corning, NY, cat. 354248) for the first three passages. The 354836-022-R-J1-PDC, 475296-252-R-J1-PDC, and 997726-040-R-J2-PDC lines were cultured in 6A media, which includes advanced DMEM/F-12 (Thermo Fisher Scientific, cat. 12634028), 10 mM HEPES (Thermo Fisher Scientific, cat. 15630080), 1X GlutaMAX supplement (Thermo Fisher Scientific, cat. 35050061), 0.1 mg/mL primocin (InvivoGen, San Diego, CA, cat. ant-pm-2), 10% defined fetal bovine serum, heat inactivated (HyClone Laboratories Inc., Logan, UT, cat. SH30070.03HI), 50% L-WRN conditioned media (ATCC, cat. CRL-3276), 1.25 mM N-Acetyl-L-cysteine (Sigma-Aldrich, cat. A9165), 10 mM nicotinamide (Sigma-Aldrich, cat. N0636), 1X B-27 supplement (Thermo Fisher Scientific, cat. 17504044), 1X N-2 supplement (Thermo Fisher Scientific, cat. 17502048), and 10 microM Y-27632 dihydrochloride (Tocris Bioscience, Bristol, United Kingdom, cat. 1254). The 624824-186-R-J2-PDC line was cultured in 6C/Colon 1B media, which includes all 6A media components plus 50 ng/mL human EGF recombinant protein (Thermo Fisher Scientific, cat. PHG0311). […]

[1] = second compound 0.0316 µM, first compound 0.0316 µM
[2] = second compound 0.0316 µM, first compound 0.1 µM
[3] = second compound 0.0316 µM, first compound 0.316 µM
[4] = second compound 0.0316 µM, first compound 1 µM
[5] = second compound 0.0316 µM, first compound 3.16 µM
[6] = second compound 0.0316 µM, first compound 10 µM
[7] = second compound 0.1 µM, first compound 0.0316 µM
[8] = second compound 0.1 µM, first compound 0.1 µM
[9] = second compound 0.1 µM, first compound 0.316 µM
[10] = second compound 0.1 µM, first compound 1 µM
[11] = second compound 0.1 µM, first compound 3.16 µM
[12] = second compound 0.1 µM, first compound 10 µM
[13] = second compound 0.316 µM, first compound 0.0316 µM
[14] = second compound 0.316 µM, first compound 0.1 µM
[15] = second compound 0.316 µM, first compound 0.316 µM
[16] = second compound 0.316 µM, first compound 1 µM
[17] = second compound 0.316 µM, first compound 3.16 µM
[18] = second compound 0.316 µM, first compound 10 µM
[19] = second compound 1 µM, first compound 0.0316 µM
[20] = second compound 1 µM, first compound 0.1 µM
[21] = second compound 1 µM, first compound 0.316 µM
[22] = second compound 1 µM, first compound 1 µM
[23] = second compound 1 µM, first compound 3.16 µM
[24] = second compound 1 µM, first compound 10 µM
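Further: spheroids exposed to compound for 7 days before viability read.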
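Wherever viability, T/C is given: 100% = DMSO vehicle-treated spheroids.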

IC50 (second compound 0.00316 µM): > 10000 nM
IC50 (second compound 0.01 µM): < 31.6 nM
IC50 (second compound 0.0316 µM): < 31.6 nM
IC50 (second compound 0.1 µM): < 31.6 nM
IC50 (second compound 0.316 µM): < 31.6 nM
IC50 (second compound 1 µM): < 31.6 nM
Structure (SMILES): CC(Cn1ccc(-c2ccc(C#N)c(Cl)c2)n1)NC(=O)c1cc(C(C)O)[nH]n1 (centres undefined) + COc1c(OCCCN2CCOCC2)ccc2c3n(c(=NC(=O)c4cnc(N)nc4)nc12)CCN3
viability, T/C (second compound 0.00316 µM, first compound 0.0316 µM): 64.2%
viability, T/C (second compound 0.00316 µM, first compound 0.1 µM): 66.1%
viability, T/C (second compound 0.00316 µM, first compound 0.316 µM): 55%
viability, T/C (second compound 0.00316 µM, first compound 1 µM): 62%
viability, T/C (second compound 0.00316 µM, first compound 3.16 µM): 64.5%
viability, T/C (second compound 0.00316 µM, first compound 10 µM): 48.1%
viability, T/C (second compound 0.01 µM, first compound 0.0316 µM): 48.6%
viability, T/C (second compound 0.01 µM, first compound 0.1 µM): 52.4%
viability, T/C (second compound 0.01 µM, first compound 0.316 µM): 45.4%
viability, T/C (second compound 0.01 µM, first compound 1 µM): 51.1%
viability, T/C (second compound 0.01 µM, first compound 3.16 µM): 45%
viability, T/C (second compound 0.01 µM, first compound 10 µM): 32.2%
viability, T/C [1]: 22.5%
viability, T/C [2]: 25.8%
viability, T/C [3]: 21.9%
viability, T/C [4]: 22.7%
viability, T/C [5]: 24.5%
viability, T/C [6]: 17.4%
viability, T/C [7]: 6.84%
viability, T/C [8]: 7.08%
viability, T/C [9]: 6.29%
viability, T/C [10]: 6.57%
viability, T/C [11]: 7.04%
viability, T/C [12]: 5.04%
viability, T/C [13]: 1.65%
viability, T/C [14]: 1.42%
viability, T/C [15]: 1.54%
viability, T/C [16]: 1.44%
viability, T/C [17]: 1.55%
viability, T/C [18]: 2.61%
viability, T/C [19]: 1.17%
viability, T/C [20]: 0.9%
viability, T/C [21]: 2.01%
viability, T/C [22]: 1.22%
viability, T/C [23]: 2.13%
viability, T/C [24]: 3.1%

IC50 (second compound 0.0316 µM): 5340 nM
IC50 (second compound 0.1 µM): 4400 nM
IC50 (second compound 0.316 µM): 1030 nM
IC50 (second compound 1 µM): < 31.6 nM
IC50 (second compound 3.16 µM): < 31.6 nM
IC50 (second compound 10 µM): < 31.6 nM
Structure (SMILES): CC1(C)CCC(Nc2ncc(C(F)(F)F)c(-c3c[nH]c4c(P(C)(C)=O)c(C#N)ccc34)n2)CN1 (centres undefined) + Cc1nc(NC(=O)N2CCCC2C(N)=O)sc1-c1ccnc(C(C)(C)C(F)(F)F)c1
viability, T/C [1]: 66.7%
viability, T/C [2]: 65%
viability, T/C [3]: 73.8%
viability, T/C [4]: 79.6%
viability, T/C [5]: 77.5%
viability, T/C [6]: 22.9%
viability, T/C [7]: 59.4%
viability, T/C [8]: 65%
viability, T/C [9]: 62.9%
viability, T/C [10]: 71.4%
viability, T/C [11]: 63.4%
viability, T/C [12]: 16.3%
viability, T/C [13]: 46.7%
viability, T/C [14]: 49%
viability, T/C [15]: 49.6%
viability, T/C [16]: 55.5%
viability, T/C [17]: 47.8%
viability, T/C [18]: 7.89%
viability, T/C [19]: 31.4%
viability, T/C [20]: 30.6%
viability, T/C [21]: 33.4%
viability, T/C [22]: 32.7%
viability, T/C [23]: 28.7%
viability, T/C [24]: 3.22%
viability, T/C (second compound 3.16 µM, first compound 0.0316 µM): 15.9%
viability, T/C (second compound 3.16 µM, first compound 0.1 µM): 17%
viability, T/C (second compound 3.16 µM, first compound 0.316 µM): 17.7%
viability, T/C (second compound 3.16 µM, first compound 1 µM): 18.8%
viability, T/C (second compound 3.16 µM, first compound 3.16 µM): 13.3%
viability, T/C (second compound 3.16 µM, first compound 10 µM): 1.08%
viability, T/C (second compound 10 µM, first compound 0.0316 µM): 4.21%
viability, T/C (second compound 10 µM, first compound 0.1 µM): 4.48%
viability, T/C (second compound 10 µM, first compound 0.316 µM): 5.01%
viability, T/C (second compound 10 µM, first compound 1 µM): 5.05%
viability, T/C (second compound 10 µM, first compound 3.16 µM): 2.85%
viability, T/C (second compound 10 µM, first compound 10 µM): 0.32%
